# From US20220031680A1, “Donecopride As Neuroprotective Agent In the Treatment of Neurodegenerative Diseases” (priority 2018, published 2022)
# System: Aβ40
# Experiment: Aβ40 levels in brain extracts of 5×FAD mice (ELISA)
# Assay type: in vivo, mouse
# Settings: brain extract; 1 mg/kg i.p. twice a week for two months, 2 to 4 months of age
# Description: Animal experiments were carried out in accordance with the Directive by the Council of the European Communities of Nov. 24, 1986 (86/609/EEC). All efforts were made to minimize animal suffering and to reduce the number of mice used. The generation of 5×FAD mice was described in Oakley et al. (2006) J. Neurosci. 26:10129-10140. These transgenic mice overexpress both human APP (695) harboring the Swedish (K670N, M671L), Florida (1716V) and London (V7171) familial AD (FAD) mutations and human Presenilin 1 (PS1) harboring the two FAD mutations M146L and L286V. Expression of both transgenes is regulated by neuronal-specific elements of the mouse Thy1 promoter. The 5×FAD strain (B6/SJL genetic background) was maintained by crossing hemizygous transgenic mice with B6/SJL F1 breeders. The 5×FAD strain (C57BL/6J genetic background) was maintained by crossing hemizygous transgenic mice with C57BL/6J F1 breeders. All animals were genotyped by PCR using tail genomic DNA. Transgenic and WT mice were bred in our animal facility, had access to food and water ad libitum and were housed under a 12 h light-dark cycle at 22-24° C. Female 5×FAD mice were used in this study. For each experiment, the age of mice is indicated in months (with a two-week range).
# Compounds were resuspended in DMSO (37.5 μg/μl, stored at −20° C.) and freshly diluted 1:250 in 0.9% NaCl prior administration. Vehicle solution (0.9% NaCl, 0.4% DMSO) was used as control.
# 5×FAD mice received chronic treatments with drugs or vehicle according to 2 different protocols. In each experiment, drugs or vehicle solution were administered i.p. twice a week (1 mg/kg). In “Protocol 1”, mice (n=6-7 mice per group) were treated with compounds for two months, from 2 to 4 months of age. In “Protocol 2”, mice (n=7) were treated with compounds for three months, from 1 month to 4 months of age. At the end of each protocol, mice were anesthetized with a mixture of 100 mg/kg ketamine and 10 mg/kg xylazine in saline solution and perfused transcardially with PBS. Brains were quickly isolated on ice, the olfactory bulbs and cerebellum removed and the two hemispheres divided. […]
# ELISA kits from IBL International (Hamburg, Germany) for the dosage of Aβ40 (human amyloid β (1-40) assay kit, #27713) or Aβ42 (human amyloid β (1-42) assay kit, #27719) were used according to the manufacturer's instructions. Reactions were read at 620 nm and 450 nm using an Infinite 2000 luminescence counter. The obtained values were normalized to the protein concentration of each sample, measured using a BCA protein assay (Sigma-Aldrich). […]
# Aβ40 and Aβ42 were quantified from brain extract in soluble and insoluble fractions. […]
SMILES,"Aβ40, insoluble fraction (% of controls)","Aβ40, soluble fraction (% of controls)"
COc1cc(N)c(F)cc1C(=O)CCC1CCN(CC2CCCCC2)CC1 [Flucopride],97.16 % of controls,110.51 % of controls
COc1cc(N)c(Cl)cc1C(=O)CCC1CCN(CC2CCCCC2)CC1 [Donecopride],79.97 % of controls,110.18 % of controls
